Calls of active or inactive are those of the source.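 How the source made its calls: active means inhibition above 50% of lysosomal marker LAMP-1 reaching the cell surface; inactive means inhibition below 50%.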
Tested on: TALL-104 cells, LAMP-1 externalization, flow cytometry
Experiment: blockers of surface LAMP-1 appearance in TALL-104 – TALL-104 cells, flow cytometry, CherryPick01, confirmation (AID 720663)
Conditions: at 30 µM; active compounds read high

Row | Compound | inhibition
1 | CC1=C(C)CS(=O)N(S(=O)(=O)c2ccc(Cl)cc2)C1 (stereo not given) | 99.5%
2 | CN1CCN(CCCNC(=O)c2ccc(/C=C3\Sc4ccccc4N(Cc4ccc(F)cc4)C3=O)cc2)CC1 | 4.5% (inactive)
3 | CCCCCCSc1cccc(-c2nc3ccccn3c2NCc2ccccc2)c1 | -0.5% (inactive)
4 | COc1ccc([N+](=O)[O-])cc1Nc1c2ccccc2nc2ccccc12 | 20.4% (inactive)
5 | Cc1ccc(S(=O)(=O)n2ccc3c(OCCOCCNCc4ccc(F)cc4)cccc32)cc1 | 85%
6 | c1ccc(CNc2nc(NCC3CC3)nc3cc(-c4ccccc4)sc23)cc1 | 97.8%
7 | CCOc1cc(CNCCc2ccc(S(N)(=O)=O)cc2)ccc1OCc1ccc(Cl)cc1 | 99.8%
8 | O=c1c2ccc(F)cc2sn1-c1ccccc1 | 77.6%
9 | Cc1cc(C)c2nc(C)cc(N/N=C/c3ccc(O)cc3)c2c1 | 100%
10 | CCCS(=O)(=O)Nc1ccc(Nc2c3ccccc3nc3ccccc23)c(OC)c1 | 99.7%
11 | COc1cccc(NC(=O)Nc2nc(-c3ccc(OC)c(OC)c3)cs2)c1 | 99.6%
12 | CN(C)CCNC(=O)c1ccc(-c2cn3c(-c4ccc(Oc5ccccc5)cc4)cnc3cn2)cc1 | 66.8%
13 | O=c1c2ccccc2sn1-c1ccccc1 | 79.9%
14 | O=C(Cn1sc2ccccc2c1=O)NC12CC3CC(CC(C3)C1)C2 | 50% (inactive)
15 | CC(C)(c1ccccc1)c1ccc(OCC(O)CNC2CCN(Cc3ccccc3)CC2)cc1 (stereo not given) | 97.6%
16 | CCCCn1c(=N)n(CC(=O)c2ccc(Br)s2)c2ccccc21 | 100%
17 | O=C1CC(Sc2nnnn2-c2ccccc2)C(=O)N1c1cccc(Cl)c1 (stereo not given) | 89.1%
18 | CN(c1ccccc1)S(=O)(=O)c1cccc(C(=O)NCCc2c[nH]c3ccccc23)c1 | 13.7% (inactive)
19 | Cc1ccc(-n2nnc3c(=O)oc4ccccc4c32)cc1 | 98.8%
20 | COc1ccc(-c2cc(NC=O)c3ncc(-c4cccc(OC)c4)n3c2)cc1 | 82.8%
21 | N#Cc1c(Nc2ccccc2Cl)s[nH]c1=O | 95.1%
22 | O=S(=O)(c1ccccc1)c1nnn2c1nc(NC1CCN(Cc3ccccc3)CC1)c1cc(Cl)ccc12 | 98.7%
23 | CCOc1ccc2nc(C)cc(Nc3cccc([N+](=O)[O-])c3)c2c1 | 100%
24 | O=C(Nc1ccc(F)cc1)c1nc(S(=O)(=O)Cc2ccccc2)ncc1Cl | 98.8%
25 | CCOC(=O)c1nnc(-c2ccccc2)nc1Sc1ccccc1Cl | 4.8% (inactive)

Row | Compound | inhibition
26 | COc1ccc(-c2cc(NC=O)c3ncc(-c4ccccc4)n3c2)cc1OC | 69.9%
27 | CCCCC[C@@H](C)N1C[C@@H](COCc2ccccc2)Oc2cc(N3CC[C@@H](N(C)C)C3)ccc2S1(=O)=O | 95.3%
28 | CC(=O)Nc1ccc2sn(-c3ccccc3)c(=O)c2c1 | 26.4% (inactive)
29 | CC1COCC(C)N1C1=C(Cl)C(=O)c2ccccc2C1=O (stereo not given) | 99.7%
30 | CCOC(=O)c1cc(-c2csc(Nc3c(C)cc(C)cc3C)n2)on1 | 70.1%
31 | O=CNc1cc(-c2ccsc2)cn2c(-c3ccccc3)cnc12 | 52.6%
32 | CCN(CC)CCCNc1ccc(-c2nnc(-c3ccc(OCC(C)C)cc3)o2)cn1 | 87.3%
33 | CCOc1ccccc1CNC(=O)C1CCN(c2nnc(C)c3c(C)n(-c4ccc(C)cc4)nc23)CC1 | 99.6%
34 | COc1ccccc1CNc1nc(NCc2ccc(C(C)C)cc2)c2sccc2n1 | 78.5%
35 | O=C(Cn1sc2ccccc2c1=O)Nc1ccc(F)cc1 | 51.7%
36 | COC(=O)c1c(NC(=O)c2ccc(C(=O)c3ccccc3)cc2)sc2c1CC(C)(C)NC2(C)C | 39.6% (inactive)
37 | Cc1cc(N2CCN(c3nc(-c4ccc([N+](=O)[O-])cc4)cs3)CC2)c2ccccc2n1 | 99.2%
38 | COC(=O)[C@]12CCCCC=C1N(Cc1cccc3ccccc13)C(=O)[C@H](CC(=O)NCc1ccc(OC)c(OC)c1)C2 | 15.9% (inactive)
39 | COc1cccc(-c2cnc3c(NC(C)=O)cc(-c4ccsc4)cn23)c1 | 53.2%
40 | CCc1ccc(/C=C2/Sc3ccccc3N(CC(=O)NCCCN3CCOCC3)C2=O)cc1 | 36.6% (inactive)
41 | O=c1c2ccccc2sn1-c1ccccc1F | 44% (inactive)
42 | CCCCC[C@@H](C)N1C[C@@H](COCc2ccccc2)Oc2cc(N3CC[C@H](N(C)C)C3)ccc2S1(=O)=O | 95.1%
43 | CCCCC[C@@H](C)N1C[C@H](COCc2ccccc2)Oc2cc(N3CC[C@@H](N(C)C)C3)ccc2S1(=O)=O | 93.7%
44 | CCCNC(=O)Cn1sc2nc(C)cc(C)c2c1=O | 41.7% (inactive)
45 | COc1cccc(-c2cnc3c(NC(C)=O)cc(-c4ccccc4OC)cn23)c1 | 56.1%
46 | CC1(C(=O)OCC(=O)Nc2nc(-c3ccc(F)c(F)c3)cs2)CC1(Cl)Cl (stereo not given) | -10.8% (inactive)
47 | CCOC(=O)c1c(NC(=O)COc2ccccc2OCC)sc2c1CC(C)(C)NC2(C)C | 94.7%
48 | COc1cc(-c2coc3c(C(=O)NCc4ccc(OC)c(OC)c4)cccc23)ccc1O | 29.4% (inactive)
49 | O=C(OCc1ccccc1)N(CCCCN(CCCNCc1ccccc1)C(=O)OCc1ccccc1)CCCNCc1ccccc1 | 99.5%
50 | CCOc1ccc2nc(N(CCCN(C)C)C(=O)c3ccc(S(=O)(=O)N4CCc5ccccc5C4)cc3)sc2c1 | 100%

Row | Compound | inhibition
51 | O=C1Nc2ccc(Br)cc2/C1=C/C(=O)c1ccccc1 | 39.4% (inactive)
52 | CC(C)CNC(=O)c1c(N)n(Cc2ccc3c(c2)OCO3)c2nc3ccccc3nc12 | 21% (inactive)
53 | CCc1ccc2nc(N(CCCN(C)C)C(=O)c3ccc(S(=O)(=O)N4CCc5ccccc5C4)cc3)sc2c1 | 97.7%
54 | CC1=NOC(=O)/C1=C/c1ccc(-c2ccc(Cl)cc2)o1 | 84.6%
55 | Cn1sc(=O)c2cc(S(=O)(=O)NC3CC3)ccc21 | 73.2%
56 | O=C(CN1C(=O)/C(=C\c2cccc(Br)c2)Oc2ccccc21)NCCCN1CCOCC1 | 77%
57 | COC(=O)c1c(NC(=O)c2nc3ccccc3s2)sc2c1CC(C)(C)NC2(C)C | 81.5%
58 | COc1ccccc1CNc1nc(NCc2ccc3occc3c2)c2sccc2n1 | 37.5% (inactive)
59 | Fc1ccc(/C=C\c2nccc3c2[nH]c2ccccc23)cc1 | 98.7%
60 | CC(=O)Nc1ccc2c(=O)n(-c3ccccc3)sc2c1 | 39.8% (inactive)
61 | COc1cccc(-c2cnc3c(NC=O)cc(-c4ccccc4)cn23)c1 | 38.8% (inactive)
62 | CN1CCN(c2cc(-c3ccccc3)nc3cc(-c4ccc(F)cc4)nn23)CC1 | 99.7%
63 | Nc1c(C(=O)NCc2ccc(F)cc2)c2nc3ccccc3nc2n1CCCN1CCOCC1 | 58.3%
64 | O=C1C=CC(=O)N1N(c1ccccc1)c1ccccc1 | 45.4% (inactive)
65 | CCOc1ccc2[nH]c3c(N4CCc5ccccc5C4)ncnc3c2c1 | 5.2% (inactive)
66 | CCc1nc2ccc(C(=O)NC3CCN(Cc4ccccc4)CC3)cn2c1N(C)Cc1cc2ccccc2s1 | 22.5% (inactive)
67 | CN(C)CCCNC(=S)NCC(c1ccc(Cl)cc1Cl)c1c[nH]c2ccccc12 (stereo not given) | 24% (inactive)
68 | OC(CNCC(c1ccc(Cl)cc1Cl)c1c[nH]c2ccccc12)c1ccccc1 (stereo not given) | 35.2% (inactive)
69 | COc1ccc(-n2sc3ccccc3c2=O)cc1 | 60.1%
70 | CCOC(=O)c1c(CSc2ccccc2)n(C)c2cc(Br)c(O)c(CN(C)C)c12 | 25.5% (inactive)
71 | N#Cc1ccc(NC(=O)Nc2ccc(Oc3ccc(NC(=O)Nc4ccc(C#N)cc4)cc3)cc2)cc1 | 40.4% (inactive)
72 | COc1ccc(N2C(=O)CC(Sc3nnc(-c4ccccc4)o3)C2=O)cc1 (stereo not given) | 92.9%
73 | Cn1cncc1C#Cc1c(-c2ccc(S(C)(=O)=O)cc2)sc2ccccc12 | 17% (inactive)
74 | Cc1ccc(Nc2nc(NCc3ccco3)c3ccccc3n2)cc1 | 58.7%
75 | CCC(=C(c1ccc(OC)cc1)c1ccc(OC)cc1)c1cn(CC(O)CN2CCN(C)CC2)c2ccccc12 (stereo not given) | 14.8% (inactive)

— PubChem BioAssay AID720663 (NMMLSC, 2013)
